Test results taken from US10065990B2, “Cyclic peptide compound, and preparation method, pharmaceutical composition and use thereof” (HANGZHOU GUANYU BIO-MEDICAL CO., LTD, priority 2013, dated 2018).
Like-named read-outs stand apart in the source and are kept apart here.

Key:
[1] = target: T1, HDAC7 (Homo sapiens, UniProt Q8WUI4); assay: HDAC biochemical activity measurement (fluorescent substrate deacetylation);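 further: fluorogenic deacetylation assay using acetyl-lysine substrate at 20 µM, enzyme and compound incubated 30 min at 37 °C, then developer added, fluorescence read at 360/460 nm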; conditions: HDAC7; 37° C. 30 minutes
T1 sequence (Q8WUI4 1-952): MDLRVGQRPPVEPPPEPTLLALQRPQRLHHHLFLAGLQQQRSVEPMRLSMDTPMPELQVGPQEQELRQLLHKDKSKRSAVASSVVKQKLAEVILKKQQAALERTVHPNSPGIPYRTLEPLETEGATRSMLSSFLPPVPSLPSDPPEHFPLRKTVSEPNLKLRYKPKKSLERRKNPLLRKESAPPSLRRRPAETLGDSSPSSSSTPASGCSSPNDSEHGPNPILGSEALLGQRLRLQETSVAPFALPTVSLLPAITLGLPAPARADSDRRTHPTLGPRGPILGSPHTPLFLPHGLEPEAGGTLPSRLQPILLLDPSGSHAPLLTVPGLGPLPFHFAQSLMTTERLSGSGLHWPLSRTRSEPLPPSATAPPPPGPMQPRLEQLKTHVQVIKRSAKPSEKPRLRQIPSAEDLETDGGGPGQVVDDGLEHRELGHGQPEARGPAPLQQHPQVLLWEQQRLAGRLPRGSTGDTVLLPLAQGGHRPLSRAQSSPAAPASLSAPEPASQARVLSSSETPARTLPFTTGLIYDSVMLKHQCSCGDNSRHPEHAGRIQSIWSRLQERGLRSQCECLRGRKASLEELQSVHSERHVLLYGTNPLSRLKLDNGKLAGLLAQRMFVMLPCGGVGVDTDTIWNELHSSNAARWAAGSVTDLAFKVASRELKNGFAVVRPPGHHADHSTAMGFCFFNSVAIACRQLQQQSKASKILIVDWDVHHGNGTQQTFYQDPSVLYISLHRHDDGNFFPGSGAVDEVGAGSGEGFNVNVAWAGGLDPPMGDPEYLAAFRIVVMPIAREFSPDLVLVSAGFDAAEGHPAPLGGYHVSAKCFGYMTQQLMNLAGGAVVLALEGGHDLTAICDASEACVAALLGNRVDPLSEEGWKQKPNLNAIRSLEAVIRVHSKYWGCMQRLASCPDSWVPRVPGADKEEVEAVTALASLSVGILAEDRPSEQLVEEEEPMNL

[2] = test system: HCC827 (human non-small cell lung cancer cells); assay: MTT cancer cell growth inhibition; type: cell-based; conditions: Homo sapiens, HCC827, 72 h, MTT, 72 hours incubation, HCC827 cells; read-out: GI50 HCC827
Outline: (§1)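 Absorbance at 570 nm of DMSO-dissolved formazan, formed during a 4 h MTT incubation, served as the viability measure. Cells had been exposed 72 h to drug at 10^−5–10^−10 M final; GI50 was calculated from these readings.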

[3] = test system: N-87 (human gastric cancer cells); assay: MTT cancer cell growth inhibition; type: cell-based; conditions: Homo sapiens, 72 h, MTT, 72 hours incubation, N-87 cells; read-out: GI50 N-87
Outline: as §1

[4] = test system: A549 (human lung cancer cells); assay: MTT cancer cell growth inhibition; type: cell-based; conditions: Homo sapiens, A549, 72 h, MTT, 72 hours incubation, read-out: GI50 A54
Outline: as §1

[5] = test system: KBM-5 (human chronic myelogenous leukemia); assay: MTT cancer cell growth inhibition; type: cell-based; conditions: Homo sapiens, KBM5, 72 h, MTT, 72 hours incubation, KBM-5 cells; read-out: GI50 KBM-5
Outline: as §1

[6] = test system: HT1080 (human fibrosarcoma cells); assay: MTT cancer cell growth inhibition; type: cell-based; conditions: Homo sapiens, HT-1080, 72 h, MTT, 72 hours incubation, read-out: GI50 HT1
Outline: as §1

[7] = test system: Hela (human cervical cancer cells); assay: MTT cancer cell growth inhibition; type: cell-based; conditions: Homo sapiens, HeLa, 72 h, MTT, 72 hours incubation, read-out: GI50 Hela
Outline: as §1

[8] = test system: BGC-823 (human gastric cancer cells); assay: MTT cancer cell growth inhibition; type: cell-based; conditions: Homo sapiens, BGC-823, 72 h, MTT, 72 hours incubation, read-out: GI50 BG
Outline: as §1

[9] = test system: U937 (human leukemia cells); assay: MTT cancer cell growth inhibition; type: cell-based; conditions: Homo sapiens, U-937, 72 h, MTT, 72 hours incubation, read-out: GI50 U93
Outline: as §1

[10] = test system: K562 (human leukemia cells); assay: MTT cancer cell growth inhibition; type: cell-based; conditions: Homo sapiens, K562, 72 h, MTT, 72 hours incubation, K562 cells; read-out: GI50 K562
Outline: as §1

[11] = test system: Huh-7 (human hepatoma cells); assay: MTT cancer cell growth inhibition; type: cell-based; conditions: Homo sapiens, Huh-7, 72 h, MTT, 72 hours incubation, Huh-7 cells; read-out: GI50 Huh-7
Outline: as §1

[12] = test system: MCF-7 (human breast cancer cells); assay: MTT cancer cell growth inhibition; type: cell-based; conditions: Homo sapiens, MCF7, 72 h, 72 hours incubation, read-out: GI50 MCF
Outline: as §1

[13] = test system: KBM5-T315I (human chronic myelogenous leukemia); assay: MTT cancer cell growth inhibition; type: cell-based; conditions: Homo sapiens, 72 h, MTT, 72 hours incubation, KBM5-T315I cells; read-out: GI50 KBM5-T315I
Outline: as §1

[14] = test system: PANC-1 (Pac-1, human pancreatic cancer cells); assay: MTT cancer cell growth inhibition; type: cell-based; conditions: Homo sapiens, PANC-1, 72 h, MTT, 72 hours incubation, read-out: GI50 PAN
Outline: as §1

[15] = test system: Bel-7402 (human hepatoma cells); assay: MTT cancer cell growth inhibition; type: cell-based; conditions: Homo sapiens, Bel-7402, 72 h, MTT, 72 hours incubation, Bel-7402 cells; read-out: GI50 Bel-7402
Outline: as §1

[16] = test system: MDA-MB-231 (breast cancer cells); assay: MTT cancer cell growth inhibition; type: cell-based; conditions: Homo sapiens, MDA-MB-231, 72 h, read-out: GI50 MDA-MB-231, MTT, 72 hours incubation, MDA-MB-231 cells
Outline: as §1

[17] = test system: SGC-7901 (human gastric cancer cells); assay: MTT cancer cell growth inhibition; type: cell-based; conditions: Homo sapiens, SGC-7901, 72 h, MTT, 72 hours incubation, SGC-7901 cells; read-out: GI50 SGC-7901
Outline: as §1

[18] = test system: DU145 (human prostate cancer cells); assay: MTT cancer cell growth inhibition; type: cell-based; conditions: Homo sapiens, DU-145, 72 h, MTT, 72 hours incubation, read-out: GI50 Du1
Outline: as §1

[19] = test system: H1975 (non-small cell lung adenocarcinoma); assay: MTT cancer cell growth inhibition; type: cell-based; conditions: Homo sapiens, NCI-H1975, 72 h, MTT, 72 hours incubation, H1975 cells; read-out: GI50 H1975
Outline: as §1

[20] = test system: MOLT-4 (human acute lymphoblastic leukemia cells); assay: MTT cancer cell growth inhibition; type: cell-based; conditions: Homo sapiens, MOLT-4, 72 h, MTT, 72 hours incubation, read-out: GI50 Mol
Outline: as §1

[21] = test system: lncap (prostate cancer cells); assay: MTT cancer cell growth inhibition; type: cell-based; conditions: Homo sapiens, LNCaP, 72 h, MTT, 72 hours incubation, read-out: GI50 lnca
Outline: as §1

Row | Compound | IC50 HDAC7 [1] | GI50 [2] | GI50 [3] | GI50 [5] | GI50 [10] | GI50 [11] | GI50 [13] | GI50 [15] | GI50 [16] | GI50 [17] | GI50 [19] | GI50 ([4]; A549 cells) | GI50 ([6]; HT1080 cells) | GI50 ([7]; Hela cells) | GI50 ([8]; BGC-823 cells) | GI50 ([9]; U937 cells) | GI50 ([12]; MCF-7 cells) | GI50 ([14]; PANC-1 cells) | GI50 ([18]; DU145 cells) | GI50 ([20]; MOLT-4 cells) | further results
1 | C/C=C1\NC(=O)c2cc(F)cc(n2)CNC(=O)C[C@@H](/C=C/CCSC(=O)CCCCC)OC(=O)[C@H](C(C)C)NC1=O [Example 37] | no activity | 0.034 µM | 0.041 µM | 0.053 µM | 0.037 µM | 0.038 µM | 0.062 µM | 0.034 µM | 0.038 µM | 0.051 µM | 0.027 µM |  |  |  |  |  |  |  |  |  | GI50 [4]: 0.05 µM; GI50 [6]: 0.03 µM; GI50 [7]: 0.05 µM; GI50 [8]: 0.04 µM; GI50 [9]: 0.02 µM; GI50 [12]: 0.06 µM; GI50 [14]: 0.03 µM; GI50 [18]: 0.03 µM; GI50 [20]: 0.03 µM; GI50 [21]: 0.03 µM
2 | C/C=C1\NC(=O)c2cc(SC)cc(n2)CNC(=O)C[C@@H](/C=C/CCSC(=O)CCC)OC(=O)[C@H](C(C)C)NC1=O [Compound 160] | no activity | 0.016 µM | 0.049 µM | 0.028 µM | 0.042 µM | 0.042 µM | 0.026 µM | 0.036 µM | 0.017 µM | 0.081 µM | 0.071 µM | 0.03 µM | 0.04 µM | 0.05 µM | 0.09 µM | 0.05 µM | 0.04 µM | 0.04 µM | 0.04 µM | 0.05 µM | GI50 ([21]; lncap cells): 0.05 µM
3 | C/C=C1\NC(=O)c2ccc(SC)c(n2)CNC(=O)C[C@@H](/C=C/CCSC=O)OC(=O)[C@H](C(C)C)NC1=O [Compound 170] | no activity | 0.096 µM | 0.062 µM | 0.049 µM | 0.037 µM | 0.088 µM | 0.057 µM | 0.043 µM | 0.038 µM | 0.037 µM | 0.026 µM | 0.06 µM | 0.05 µM | 0.03 µM | 0.02 µM | 0.09 µM | 0.06 µM | 0.05 µM | 0.02 µM | 0.03 µM | GI50 ([21]; lncap cells): 0.07 µM
